Laboratory results published in PMC12164272, “Ruthenium(II) Polypyridyl Complexes Containing COUBPY Ligands as Potent Photosensitizers for the Efficient Phototherapy of Hypoxic Tumors” (Journal of the American Chemical Society, 2025).
Where two headings read alike, the source gives them in different places.

How the values were obtained:
[1] = cited from earlier work
CT-26 cancer cells = test: (Photo)cytotoxicity in 2D monolayer cells under normoxia (21% O2), resazurin assay; assay type: cell-based, murine; conditions: for Phototherapeutic index (PI) = IC50(dark)/IC50(light): normoxia; for IC50: Mus musculus
Procedure: To that end, cells were incubated for 4 h with increasing concentrations of the compounds, and after refreshing the medium, they were either illuminated or kept in the dark. […] The phototoxic index (PI), defined as the ratio of dark to light IC50 values, was used to quantify the phototherapeutic efficiency of the tested compounds. […] Using a well-by-well monochromatic LED device, cells were irradiated with green (540 nm, 40 min), yellow (595 nm, 1 h), red (620 nm, 1 h), deep-red (645 nm, 1 h), far-red (670 nm, 1 h), or NIR (740 nm, 1 h) light, with fluences ranging from 3.4 J/cm^2 (595 nm) to 13.5 J/cm^2 (670 nm).
In vitro (photo)cytotoxicity determination of Ru-COUBPY PSs
CT-26 cells were cultured in Dulbecco’s modified Eagle medium (DMEM) (Gibco)
supplemented with 10% fetal calf serum (Gibco) and 2 mM L-glutamine.
the corresponding culture medium was supplemented with 100 U·mL−1 penicillin streptomycin
mixture (Gibco) and cells were maintained in a humidified atmosphere at 37 °C and 5 % of
(Photo)cytotoxicity evaluation in 2D monolayer cells under normoxia (21% O2)
The (photo)cytotoxicity of the test compounds under normoxia (21% O2) was assessed by a
fluorometric cell viability assay using Resazurin (Acros Organics). CT-26 cells were seeded in
triplicate in 96-well plates at a density of 4000 cells/well in complete medium in a final volume
of 100 μL/well. After 24 h, cells were treated with increasing concentrations of the test
compounds using serial dilutions of the test compounds in complete culture medium (DMSO
≤1 %) at final concentrations in the range of 0 to 250 μM (100 μL/well), followed by a 4-h
incubation at 37 °C, 5% CO2 in the dark. The medium containing the PS was then replaced with
fresh medium (100 μL/well) and plates were irradiated for 1 h at 37 °C, 0 % CO2 with 540 nm
(spectral half-width: 32 nm, 40 min, 3.75 mW cm−2, 9.0 J cm−2), 595 nm (spectral half-width:
mW cm−2, 6.7 J cm−2), 645 nm (spectral half-width: 32 nm, 60 min, 2.50 mW cm−2, 9.0 J cm−2),
670 nm (spectral half-width: 32 nm, 60 min, 3.75 mW cm−2, 13.5 J cm−2) or 740 nm (spectral
half-width: 32 nm, 60 min, 3.50 mW cm−2, 12.6 J cm−2) light using a LED multi-well plate
photo-irradiation system (Atlas Photonics Lumos Bio). To evaluate the cytotoxicity of the test
compounds in the dark, three additional plates of treated cells were kept in the dark for 1 h at
37 °C, 0 % CO2. Cells were then kept in the incubator (37 °C, 5 % CO2) over a recovery period
of 44 h. Next, the medium was replaced with complete medium containing Resazurin (0.2
mg/mL, 100 μL/well), followed by a 4-h incubation at 37 °C, 5 % CO2. Finally, the fluorescence
signal of the Resorufin product was measured (ex = 540 nm, em = 590 nm) using a Infinite
200 PRO Microplate Reader from TECAN. IC50 values were then calculated based on the
inhibitory rate curves using the following equation (6)
where I represent the percentage inhibition of viability observed, Imax is the maximal inhibitory
effect, IC50 is the concentration that inhibits 50% of maximal growth, C is the concentration of
the treatment and n is the slope of the semi-logarithmic dose-response sigmoidal curves. The
non-linear fitting was performed using GraphPad Prism software. All experiments were
performed in three independent studies with triplicate points per concentration level.

## [Cl][Ru][Cl].c1ccc(-c2ccccn2)nc1.c1ccc(-c2ccccn2)nc1.c1ccc(-c2ccccn2)nc1 [[Ru(bpy)3]Cl2]
[1]; aerated CH3CN
  reference singlet oxygen quantum yield ΦΔ,ref: 0.57

## C=CC1=C(C)c2cc3[nH]c(cc4nc(cc5[nH]c(cc1n2)c(C)c5CCC(=O)O)C(CCC(=O)O)=C4C)c(C)c3C=C [PpIX, Protoporphyrin IX]
CT-26 cancer cells; 540 nm
  Phototherapeutic index (PI) = IC50(dark)/IC50(light): >312
CT-26 cancer cells; 595 nm
  Phototherapeutic index (PI) = IC50(dark)/IC50(light): >250
CT-26 cancer cells; 620 nm
  Phototherapeutic index (PI) = IC50(dark)/IC50(light): >151
CT-26 cancer cells; 645 nm
  Phototherapeutic index (PI) = IC50(dark)/IC50(light): >588
CT-26 cancer cells; 670 nm
  Phototherapeutic index (PI) = IC50(dark)/IC50(light): >129
CT-26 cancer cells; 740 nm
  Phototherapeutic index (PI) = IC50(dark)/IC50(light): >50
CT-26 cancer cells; CT26, 540 nm, 9.0 J cm–2, normoxia 21% O2
  IC50: 320 ± 90 nM
CT-26 cancer cells; CT26, 595 nm, 3.4 J cm–2, normoxia 21% O2
  IC50: 400 ± 10 nM
CT-26 cancer cells; CT26, 620 nm, 6.7 J cm–2, normoxia 21% O2
  IC50: 660 ± 210 nM
CT-26 cancer cells; CT26, 645 nm, 9.0 J cm–2, normoxia 21% O2
  IC50: 170 ± 210 nM
CT-26 cancer cells; CT26, 670 nm, 13.5 J cm–2, normoxia 21% O2
  IC50: 770 ± 200 nM
CT-26 cancer cells; CT26, 740 nm, 12.6 J cm–2, normoxia 21% O2
  IC50: 2100 ± 200 nM
CT-26 cancer cells; CT26, 4 h, dark, normoxia 21% O2, 4 h incubation
  IC50: > 100000 nM

## CN(C)c1ccc2nc3ccc(=[N+](C)C)cc-3sc2c1 [methylene blue]
[1]; aerated DCM
  reference singlet oxygen quantum yield ΦΔ,ref: 0.57
